Experimental data: PubChem BioAssay AID328 (DTP/NCI, 2004)
Values joined by “and” are separate entries in the source; they are usually repeats but may differ in a detail not shown here. Equal values may be shown once. Inconclusive results and toxic doses are left out.

Test system: BDF1 mice, P388 leukemia ip, median survival T/C
Test: NCI In Vivo Anticancer Drug Screen. Data for tumor model P388 Leukemia (intraperitoneal) in B6D2F1 (BDF1) mice
Settings: endpoint: median survival time, higher = longer survival
Outline: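 Antitumour effect was judged in vivo: survival in drug-treated mice, normalised to that of vehicle-dosed controls, gives the reported T/C.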

[1] = dose: 12.5 mg/kg/injection, schedule: Q01DX009 (ip), vehicle: suspension in saline
[2] = dose: 25.0 mg/kg/injection, schedule: Q01DX009 (ip), vehicle: suspension in saline
[3] = dose: 200.0 mg/kg/injection, schedule: Q04DX003 (ip), vehicle: saline
[4] = dose: 25.0 mg/kg/injection, schedule: Q01DX009 (ip), vehicle: Klucel (hydroxypropylcellulose) (HPC)
[5] = dose: 100.0 mg/kg/injection, schedule: Q01DX009 (ip), vehicle: saline with Tween-80
[6] = dose: 200.0 mg/kg/injection, schedule: Q01DX009 (ip), vehicle: saline with Tween-80
[7] = dose: 400.0 mg/kg/injection, schedule: Q01DX009 (ip), vehicle: saline with Tween-80
[8] = dose: 100.0 mg/kg/injection, schedule: Q01DX009 (ip), vehicle: Klucel (hydroxypropylcellulose) (HPC)
[9] = dose: 100.0 mg/kg/injection, schedule: Q04DX003 (ip), vehicle: Klucel (hydroxypropylcellulose) (HPC)
[10] = dose: 200.0 mg/kg/injection, schedule: Q01DX009 (ip), vehicle: Klucel (hydroxypropylcellulose) (HPC)
[11] = dose: 200.0 mg/kg/injection, schedule: Q04DX003 (ip), vehicle: Klucel (hydroxypropylcellulose) (HPC)
[12] = dose: 400.0 mg/kg/injection, schedule: Q04DX003 (ip), vehicle: Klucel (hydroxypropylcellulose) (HPC)
[13] = dose: 50.0 mg/kg/injection, schedule: Q01DX009 (ip), vehicle: saline with Tween-80
[14] = dose: 100.0 mg/kg/injection, schedule: Q01DX001 (ip), vehicle: saline with Tween-80
[15] = dose: 400.0 mg/kg/injection, schedule: Q01DX001 (ip), vehicle: saline with Tween-80

In the case of `CC1=CC(=Nc2ccc(N(C)C)cc2)C=CC1=O`, the T/C (dose: 3.13 mg/kg/injection, schedule: Q01DX009 (ip), vehicle: suspension in saline) is reported as 98 % of control, the T/C (dose: 6.25 mg/kg/injection, schedule: Q01DX009 (ip), vehicle: suspension in saline) is reported as 117 % of control and the T/C [1] is reported as 123 % of control. For the same compound, the T/C [2] was 117 % of control.
For `CC1=Nc2ccccc2NC(C)(C)C1`, the T/C (dose: 100.0 mg/kg/injection, schedule: Q04DX003 (ip), vehicle: saline) was 101 % of control, the T/C [3] was 99 % of control and the T/C (dose: 400.0 mg/kg/injection, schedule: Q04DX003 (ip), vehicle: saline) was 90 % of control.
For `S=c1nc[nH]c2c1ncn2CN1CCOCC1`, the T/C [4] was 110 % of control.
With `CCCCCCC(=O)/C=C/c1ccc(Cl)cc1Cl` the T/C [5] was 109 % of control, the T/C [6] was 94 % of control and the T/C [7] was 98 % of control.
With `C=CCN(CC=C)c1ccc(N(CC)CC)cc1` the T/C (dose: 100.0 mg/kg/injection, schedule: Q01DX001 (ip), vehicle: Klucel (hydroxypropylcellulose) (HPC)) was 87 % of control, the T/C (dose: 200.0 mg/kg/injection, schedule: Q01DX001 (ip), vehicle: Klucel (hydroxypropylcellulose) (HPC)) was 95 % of control and the T/C (dose: 400.0 mg/kg/injection, schedule: Q01DX001 (ip), vehicle: Klucel (hydroxypropylcellulose) (HPC)) was 100 % of control.
With `CCOC(=O)c1cc(/C=C/c2ccccc2)[nH]c(=O)c1C#N` the T/C [4] was 91 % of control, the T/C (dose: 50.0 mg/kg/injection, schedule: Q01DX009 (ip), vehicle: Klucel (hydroxypropylcellulose) (HPC)) was 91 % of control and the T/C [8] was 95 % of control. The T/C [9] was 95 % of control, the T/C [10] was 92 % of control and the T/C [11] was 104 % of control. The T/C [12] was 104 % of control.
With `CC(=O)C[P+](c1ccccc1)(c1ccccc1)c1ccccc1` the T/C (dose: 100.0 mg/kg/injection, schedule: Q01DX001 (ip), vehicle: saline) was 109 % of control.
`O=C1NCCN1c1ccccn1` was tested, and the T/C (dose: 12.5 mg/kg/injection, schedule: Q04DX003 (ip), vehicle: saline) was 100 % of control, the T/C (dose: 25.0 mg/kg/injection, schedule: Q04DX003 (ip), vehicle: saline) was 90 % of control and the T/C (dose: 50.0 mg/kg/injection, schedule: Q04DX003 (ip), vehicle: saline) was 95 % of control.
For `CC(CCl)OC(C)CCl` (stereo unspecified), the T/C (dose: 100.0 mg/kg/injection, schedule: Q04DX002 (ip), vehicle: saline) was 106 % of control, the T/C (dose: 200.0 mg/kg/injection, schedule: Q04DX002 (ip), vehicle: saline) was 107 % of control and the T/C (dose: 400.0 mg/kg/injection, schedule: Q04DX002 (ip), vehicle: saline) was 107 % of control.
For `Clc1ccc(-c2ccccc2)cc1Cl`, the T/C [13] was 115 % of control, the T/C [5] was 114 % of control and the T/C [6] was 118 % of control.
For `O=c1ccc2nc3cc(Cl)ccc3sc-2c1`, the T/C [8] was 109 % of control, the T/C [9] was 100 % of control and the T/C [10] was 95 % of control and 105 % of control. The T/C [11] was 90 % of control, the T/C (dose: 400.0 mg/kg/injection, schedule: Q01DX009 (ip), vehicle: Klucel (hydroxypropylcellulose) (HPC)) was 100 % of control and the T/C [12] was 90 % of control.
With `Cc1cccn2c(CCc3nnc4c(C)cccn34)nnc12` the T/C [13] was 97 % of control, the T/C [5] was 93 % of control and the T/C [6] was 89 % of control.
With `CC(N)c1ccccc1` (stereo unspecified) (tested in a mixture with another compound) the T/C (dose: 50.0 mg/kg/injection, schedule: Q01DX009 (ip), vehicle: saline) was 96 % of control, the T/C (dose: 100.0 mg/kg/injection, schedule: Q01DX009 (ip), vehicle: saline) was 104 % of control and the T/C (dose: 200.0 mg/kg/injection, schedule: Q01DX009 (ip), vehicle: saline) was 95 % of control.
For `O=[N+]([O-])c1ccc(S(=O)c2ccc([N+](=O)[O-])c3no[n+]([O-])c23)cc1` (stereo unspecified), the T/C (dose: 10.0 mg/kg/injection, schedule: Q01DX009 (ip), vehicle: saline with Tween-80) was 104 % of control, the T/C (dose: 20.0 mg/kg/injection, schedule: Q01DX009 (ip), vehicle: saline with Tween-80) was 100 % of control and the T/C (dose: 40.0 mg/kg/injection, schedule: Q01DX009 (ip), vehicle: saline with Tween-80) was 102 % of control.
`CCNS(=O)(=O)c1ncnc2nc[nH]c12` was tested, and the T/C [5] was 100 % of control, the T/C (dose: 100.0 mg/kg/injection, schedule: Q04DX003 (ip), vehicle: saline with Tween-80) was 104 % of control and the T/C [6] was 100 % of control. For the same compound, the T/C (dose: 200.0 mg/kg/injection, schedule: Q04DX003 (ip), vehicle: saline with Tween-80) was 100 % of control, the T/C [7] was 100 % of control and the T/C (dose: 400.0 mg/kg/injection, schedule: Q04DX003 (ip), vehicle: saline with Tween-80) was 100 % of control.
`O=C(OC1(c2ccccc2)CCC1)c1cc([N+](=O)[O-])cc([N+](=O)[O-])c1` was tested, and the T/C [14] was 97 % of control, the T/C (dose: 200.0 mg/kg/injection, schedule: Q01DX001 (ip), vehicle: saline with Tween-80) was 96 % of control and the T/C [15] was 99 % of control.
For `COC(=O)c1c2ccccc2cn1-c1ccccc1`, the T/C [13] was 100 % of control, the T/C [5] was 109 % of control and the T/C [6] was 100 % of control.
`CN(Cc1ccccc1)c1ccc(/C=C/c2ccnc3ccccc23)cc1` was tested, and the T/C (dose: 12.5 mg/kg/injection, schedule: Q01DX001 (ip), vehicle: saline with Tween-80) was 93 % of control, the T/C (dose: 25.0 mg/kg/injection, schedule: Q01DX001 (ip), vehicle: saline with Tween-80) was 89 % of control and the T/C (dose: 50.0 mg/kg/injection, schedule: Q01DX001 (ip), vehicle: saline with Tween-80) was 88 % of control. For the same compound, the T/C [14] was 93 % of control and the T/C [15] was 94 % of control.
In the case of `Cc1c(C)c(N)c(C)c(C)c1N`, the T/C (dose: 3.0 mg/kg/injection, schedule: Q01DX009 (ip), vehicle: Klucel (hydroxypropylcellulose) (HPC)) is reported as 91 % of control, the T/C (dose: 3.0 mg/kg/injection, schedule: Q04DX003 (ip), vehicle: Klucel (hydroxypropylcellulose) (HPC)) is reported as 108 % of control and the T/C (dose: 6.0 mg/kg/injection, schedule: Q01DX009 (ip), vehicle: Klucel (hydroxypropylcellulose) (HPC)) is reported as 87 % of control. The T/C (dose: 6.0 mg/kg/injection, schedule: Q04DX003 (ip), vehicle: Klucel (hydroxypropylcellulose) (HPC)) was 100 % of control, the T/C (dose: 12.0 mg/kg/injection, schedule: Q01DX009 (ip), vehicle: Klucel (hydroxypropylcellulose) (HPC)) was 95 % of control and the T/C (dose: 12.0 mg/kg/injection, schedule: Q04DX003 (ip), vehicle: Klucel (hydroxypropylcellulose) (HPC)) was 91 % of control.
`O=C(O)CC(O)(CC(=O)O)C(=O)O.[Ga]` was tested, and the T/C (dose: 75.0 mg/kg/injection, schedule: Q01DX009 (ip), vehicle: saline) was 114 % of control, the T/C (dose: 112.5 mg/kg/injection, schedule: Q01DX009 (ip), vehicle: saline) was 90 % of control and the T/C (dose: 132.0 mg/kg/injection, schedule: Q04DX003 (ip), vehicle: saline) was 115 % of control. For the same compound, the T/C [3] was 110 % of control and the T/C (dose: 300.0 mg/kg/injection, schedule: Q04DX003 (ip), vehicle: saline) was 110 % of control.
`NC(=O)C1=C(O)C(=O)NC1=O` was tested, and the T/C (dose: 50.0 mg/kg/injection, schedule: Q04DX003 (ip), vehicle: Klucel (hydroxypropylcellulose) (HPC)) was 100 % of control, the T/C [9] was 109 % of control and the T/C [11] was 95 % of control.
With `COc1cc(/C=C2\SC(=S)N(CCCN3CCOCC3)C2=O)ccc1O` the T/C [1] was 86 % of control, the T/C [2] was 101 % of control and the T/C (dose: 50.0 mg/kg/injection, schedule: Q01DX009 (ip), vehicle: suspension in saline) was 99 % of control.
With `Cc1ccc(NCCN2CCCCC2)c2c(=O)c3ccccc3sc12` the T/C [8] was 115 % of control, the T/C [9] was 115 % of control and the T/C [10] was 110 % of control. For the same compound, the T/C [11] was 115 % of control, the T/C (dose: 264.0 mg/kg/injection, schedule: Q01DX009 (ip), vehicle: Klucel (hydroxypropylcellulose) (HPC)) was 150 % of control and the T/C (dose: 264.0 mg/kg/injection, schedule: Q04DX003 (ip), vehicle: Klucel (hydroxypropylcellulose) (HPC)) was 118 % of control and 120 % of control. For the same compound, the T/C [12] was 122 % of control.
With `COC1=C(C2=C(OC)C(=O)c3cc4oc(C)cc(=O)c4c(O)c3C2=O)C(=O)c2c(cc3oc(C)cc(=O)c3c2O)C1=O` the T/C (dose: 0.37 mg/kg/injection, schedule: Q01DX009 (ip), vehicle: saline) was 99 % of control, the T/C (dose: 0.75 mg/kg/injection, schedule: Q01DX009 (ip), vehicle: saline) was 105 % of control and the T/C (dose: 1.5 mg/kg/injection, schedule: Q01DX009 (ip), vehicle: saline) was 111 % of control. For the same compound, the T/C (dose: 3.0 mg/kg/injection, schedule: Q01DX009 (ip), vehicle: saline) was 101 % of control.
